Experimental data taken from patent US20220298138A1, “ENZYME INHIBITORS” (KALVISTA PHARMACEUTICALS LIMITED, priority 2019, published 2022).

The compounds below were run against T1, Human Factor XIIa (Homo sapiens, UniProt P00748) (assay: Factor XIIa inhibitory activity in vitro (fluorogenic substrate H-DPro-Phe-Arg-AFC)). Conditions: 25° C., class symbols, read-out: Human FXIIa IC50.
T1 construct: purchased Enzyme Research Laboratories
T1 sequence (P00748 373-615 limits assumed): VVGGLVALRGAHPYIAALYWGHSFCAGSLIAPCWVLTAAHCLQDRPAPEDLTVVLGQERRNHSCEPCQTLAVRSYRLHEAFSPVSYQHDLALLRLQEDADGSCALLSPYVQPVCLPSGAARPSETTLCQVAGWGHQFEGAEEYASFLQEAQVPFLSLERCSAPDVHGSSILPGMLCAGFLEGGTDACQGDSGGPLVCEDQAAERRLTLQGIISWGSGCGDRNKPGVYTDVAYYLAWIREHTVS
Assay type: biochemical
Experimental: Determination of the % Inhibition for FXIIa
Human Factor XIIa (Enzyme Research Laboratories) was incubated at 25° C. with the fluorogenic substrate H-DPro-Phe-Arg-AFC and various concentrations of the test compound. Residual enzyme activity (initial rate of reaction) was determined by measuring the change in […] at 410 nm and the IC50 value for the test compound was determined.

SMILES | IC50
Nc1nccc2cc(CNC(=O)[C@H](Cc3ccc(F)c(F)c3)NC(=O)c3ccc(Cn4cnnn4)cc3)ccc12 [Example 0.67] | 1 to 3 µM
Nc1nccc2cc(CNC(=O)[C@H](Cc3ccc(F)c(F)c3)NC(=O)c3cccc(Cn4cccn4)c3)ccc12 [Example 0.68] | 10 to 40 µM
Cn1cncc1C(=O)N[C@@H](Cc1ccc(F)c(F)c1)C(=O)NCc1ccc2c(N)nccc2c1 [Example 0.69] | 10 to 40 µM
CCCn1ncc(C(=O)N[C@@H](Cc2ccc(F)c(F)c2)C(=O)NCc2ccc3c(N)nccc3c2)c1C [Example 0.70] | 10 to 40 µM
Nc1nccc2cc(CNC(=O)[C@H](Cc3ccc(F)c(F)c3)NC(=O)c3ccncn3)ccc12 [Example 0.71] | 3 to 10 µM
Nc1nccc2cc(CNC(=O)[C@H](Cc3ccc(F)c(F)c3)NC(=O)C3(C(F)(F)F)CC3)ccc12 [Example 0.72] | 10 to 40 µM
Nc1nccc2cc(CNC(=O)[C@H](Cc3ccc(F)c(F)c3)NC(=O)c3cc(F)cc(F)c3)ccc12 [Example 0.73] | 10 to 40 µM
Nc1nccc2cc(CNC(=O)[C@H](Cc3ccc(F)c(F)c3)NC(=O)c3nc4ccccc4[nH]c3=O)ccc12 [Example 0.74] | 10 to 40 µM
CC(C)c1cc(C(=O)N[C@@H](Cc2ccc(F)c(F)c2)C(=O)NCc2ccc3c(N)nccc3c2)no1 [Example 0.75] | 3 to 10 µM
Nc1nccc2cc(CNC(=O)[C@H](Cc3ccc(F)c(F)c3)NC(=O)c3ccc4c(c3)CC=C(O)N4)ccc12 [Example 0.76] | 10 to 40 µM
Nc1nccc2cc(CNC(=O)[C@H](Cc3ccc(F)c(F)c3)NC(=O)c3ccsc3)ccc12 [Example 0.77] | 10 to 40 µM
Nc1nccc2cc(CNC(=O)[C@H](Cc3ccc(F)c(F)c3)NC(=O)c3ccco3)ccc12 [Example 0.78] | 3 to 10 µM
CCCc1cc(C(=O)N[C@@H](Cc2ccc(F)c(F)c2)C(=O)NCc2ccc3c(N)nccc3c2)nn1C [Example 0.79] | 3 to 10 µM
Nc1nccc2cc(CNC(=O)[C@H](Cc3ccc(F)c(F)c3)NC(=O)c3nccc4ccccc34)ccc12 [Example 0.80] | 10 to 40 µM
Nc1nccc2cc(CNC(=O)[C@H](Cc3ccc(F)c(F)c3)NC(=O)c3cccc(N4CCCC4=O)c3)ccc12 [Example 0.81] | 3 to 10 µM
Nc1nccc2cc(CNC(=O)[C@H](Cc3ccc(F)c(F)c3)NC(=O)c3cccs3)ccc12 [Example 0.82] | 10 to 40 µM
COc1cnccc1C(=O)N[C@@H](Cc1ccc(F)c(F)c1)C(=O)NCc1ccc2c(N)nccc2c1 [Example 0.84] | 10 to 40 µM
Nc1nccc2cc(CNC(=O)[C@H](Cc3ccc(F)c(F)c3)NC(=O)c3cc4ccccc4[nH]3)ccc12 [Example 0.85] | 10 to 40 µM
CN(C)C(C)(C)C(=O)N[C@@H](Cc1ccc(F)c(F)c1)C(=O)NCc1ccc2c(N)nccc2c1 [Example 0.86] | 1 to 3 µM
CC(C)c1cc(C(=O)N[C@@H](Cc2ccc(F)c(F)c2)C(=O)NCc2ccc3c(N)nccc3c2)ncn1 [Example 0.87] | 0.28 to 1 µM
Cn1nc(C(C)(C)C)cc1C(=O)N[C@@H](Cc1ccc(F)c(F)c1)C(=O)NCc1ccc2c(N)nccc2c1 [Example 0.88] | 10 to 40 µM

SMILES | IC50
CC(C)c1ncncc1C(=O)N[C@@H](Cc1ccc(F)c(F)c1)C(=O)NCc1ccc2c(N)nccc2c1 [Example 0.89] | 10 to 40 µM
CC(C)c1cc(C(=O)N[C@@H](Cc2ccc(F)c(F)c2)C(=O)NCc2ccc3c(N)nccc3c2)n(C)n1 [Example 0.90] | 10 to 40 µM
CC(C)c1nc(C(=O)N[C@@H](Cc2ccc(F)c(F)c2)C(=O)NCc2ccc3c(N)nccc3c2)cs1 [Example 0.91] | 10 to 40 µM
CC(C)c1ncc(C(=O)N[C@@H](Cc2ccc(F)c(F)c2)C(=O)NCc2ccc3c(N)nccc3c2)cn1 [Example 0.92] | 3 to 10 µM
Nc1nccc2cc(CNC(=O)[C@H](Cc3ccc(F)c(F)c3)NC(=O)c3ccn4ncnc4n3)ccc12 [Example 0.93] | 1 to 3 µM
CC1CCCC(C)N1CC(=O)N[C@@H](Cc1cccc2ccccc12)C(=O)NCc1ccc2c(N)nccc2c1 (stereo partly shown) [Example 3.02] | 0.1 to 0.279 µM
CN(C)CC(=O)N[C@@H](Cc1ccc(F)c(F)c1)C(=O)NCc1ccc2c(N)nccc2c1 [Example 3.03] | 1 to 3 µM
CC1CCCC(C)N1CC(=O)N[C@@H](Cc1cccc(F)c1)C(=O)NCc1ccc2c(N)nccc2c1 (stereo partly shown) [Example 3.04] | 0.1 to 0.279 µM
CC1CCCC(C)N1CC(=O)N[C@@H](Cc1ccccc1Cl)C(=O)NCc1ccc2c(N)nccc2c1 (stereo partly shown) [Example 3.05] | 1 to 3 µM
Nc1nccc2cc(CNC(=O)[C@H](Cc3ccc(F)c(F)c3)NC(=O)CN3CCCCC3)ccc12 [Example 3.06] | 1 to 3 µM
Nc1nccc2cc(CNC(=O)[C@H](Cc3ccc(F)c(F)c3)NC(=O)CN3CCOCC3)ccc12 [Example 3.07] | 10 to 40 µM
CC(C)N(C)CC(=O)N[C@@H](Cc1ccc(F)c(F)c1)C(=O)NCc1ccc2c(N)nccc2c1 [Example 3.08] | 0.28 to 1 µM
CC(C)N(CC(=O)N[C@@H](Cc1ccc(F)c(F)c1)C(=O)NCc1ccc2c(N)nccc2c1)C(C)C [Example 3.09] | 0.28 to 1 µM
C[C@@H]1CCC[C@H](C)N1CC(=O)N[C@@H](Cc1csc2ccccc12)C(=O)NCc1ccc2c(N)nccc2c1 [Example 3.10] | 0.03 to 0.1 µM
C[C@@H]1CCC[C@H](C)N1CC(=O)N[C@@H](Cc1ccccc1)C(=O)NCc1ccc2c(N)nccc2c1 [Example 3.11] | 0.1 to 0.279 µM
C[C@@H]1CCC[C@H](C)N1CC(=O)N[C@@H](Cc1ccc(Cl)cc1)C(=O)NCc1ccc2c(N)nccc2c1 [Example 3.12] | 3 to 10 µM
C[C@@H]1CCC[C@H](C)N1CC(=O)N[C@@H](Cc1cccc(Cl)c1)C(=O)NCc1ccc2c(N)nccc2c1 [Example 3.13] | 0.1 to 0.279 µM
C[C@@H]1CCC[C@H](C)N1CC(=O)N[C@@H](Cc1ccc(F)cc1)C(=O)NCc1ccc2c(N)nccc2c1 [Example 3.14] | 0.1 to 0.279 µM
C[C@@H]1CCC[C@H](C)N1CC(=O)N[C@@H](CCc1ccccc1)C(=O)NCc1ccc2c(N)nccc2c1 [Example 3.15] | 1 to 3 µM
C[C@@H]1CCC[C@H](C)N1CC(=O)N[C@@H](CC1CCCCC1)C(=O)NCc1ccc2c(N)nccc2c1 [Example 3.16] | 3 to 10 µM
C[C@@H]1CCC[C@H](C)N1CC(=O)N[C@H](Cc1ccc(F)c(F)c1)C(=O)NCc1ccc2c(N)nccc2c1 [Example 3.17] | 1 to 3 µM

SMILES | IC50
CC1(C)CCCN1CC(=O)N[C@@H](Cc1ccc(F)c(F)c1)C(=O)NCc1ccc2c(N)nccc2c1 [Example 3.18] | 0.28 to 1 µM
C[C@H]1CC[C@H](C)N1CC(=O)N[C@@H](Cc1ccc(F)c(F)c1)C(=O)NCc1ccc2c(N)nccc2c1 [Example 3.19] | 0.28 to 1 µM
C[C@@H]1CC[C@H](C)N1CC(=O)N[C@@H](Cc1ccc(F)c(F)c1)C(=O)NCc1ccc2c(N)nccc2c1 [Example 3.20] | 0.28 to 1 µM
C[C@@H]1CCC[C@H](C)N1CC(=O)N[C@@H](Cc1c[nH]c2ccccc12)C(=O)NCc1ccc2c(N)nccc2c1 [Example 3.21] | 0.1 to 0.279 µM
CC[C@H](NC(=O)CN1[C@H](C)CCC[C@@H]1C)C(=O)NCc1ccc2c(N)nccc2c1 [Example 3.22] | 3 to 10 µM
Nc1nccc2cc(CNC(=O)[C@H](Cc3ccc(F)c(F)c3)NC(=O)Cc3cccnc3)ccc12 [Example 3.23] | 10 to 40 µM
CS(=O)(=O)c1cccc(CC(=O)N[C@@H](Cc2ccc(F)c(F)c2)C(=O)NCc2ccc3c(N)nccc3c2)c1 [Example 3.24] | 3 to 10 µM
N#Cc1cccc(CC(=O)N[C@@H](Cc2ccc(F)c(F)c2)C(=O)NCc2ccc3c(N)nccc3c2)c1 [Example 3.25] | 10 to 40 µM
Nc1nccc2cc(CNC(=O)[C@H](Cc3ccc(F)c(F)c3)NC(=O)Cc3ccsc3)ccc12 [Example 3.26] | 10 to 40 µM
Cc1ccc(CN(C)CC(=O)N[C@@H](Cc2ccc(F)c(F)c2)C(=O)NCc2ccc3c(N)nccc3c2)cc1 [Example 3.27] | 10 to 40 µM
CC(C)(O)CC(=O)N[C@@H](Cc1ccc(F)c(F)c1)C(=O)NCc1ccc2c(N)nccc2c1 [Example 3.28] | 10 to 40 µM
Nc1nccc2cc(CNC(=O)[C@H](Cc3ccc(F)c(F)c3)NC(=O)CCn3cc(C(F)(F)F)ccc3=O)ccc12 [Example 3.29] | 10 to 40 µM
CCCCOCC(=O)N[C@@H](Cc1ccc(F)c(F)c1)C(=O)NCc1ccc2c(N)nccc2c1 [Example 3.30] | 10 to 40 µM
Cc1nccn1CCC(=O)N[C@@H](Cc1ccc(F)c(F)c1)C(=O)NCc1ccc2c(N)nccc2c1 [Example 3.31] | 3 to 10 µM
Nc1nccc2cc(CNC(=O)[C@H](Cc3ccc(F)c(F)c3)NC(=O)Cc3nc(-c4cccnc4)n[nH]3)ccc12 [Example 3.32] | 10 to 40 µM
Nc1nccc2cc(CNC(=O)[C@H](Cc3ccc(F)c(F)c3)NC(=O)CN3CCOc4ccccc4C3)ccc12 [Example 3.33] | 10 to 40 µM
Nc1nccc2cc(CNC(=O)[C@H](Cc3ccc(F)c(F)c3)NC(=O)Cc3ccccn3)ccc12 [Example 3.34] | 10 to 40 µM
Nc1nccc2cc(CNC(=O)[C@H](Cc3ccc(F)c(F)c3)NC(=O)C[C@@H]3CCCO3)ccc12 [Example 3.35] | 10 to 40 µM
Nc1nccc2cc(CNC(=O)[C@H](Cc3ccc(F)c(F)c3)NC(=O)C[C@H]3CCCO3)ccc12 [Example 3.36] | 10 to 40 µM
Nc1nccc2cc(CNC(=O)[C@H](Cc3ccc(F)c(F)c3)NC(=O)CN3CCCC3=O)ccc12 [Example 3.37] | 10 to 40 µM
Nc1nccc2cc(CNC(=O)[C@H](Cc3ccc(F)c(F)c3)NC(=O)CN3CCCCCC3)ccc12 [Example 3.38] | 1 to 3 µM

Same assay, conditions: 25° C., numeric bound instead of class symbol, read-out: Human FXIIa IC50

SMILES | IC50
Cc1ccnn1-c1ccc(C(=O)N[C@@H](Cc2ccc(F)c(F)c2)C(=O)NCc2ccc3c(N)nccc3c2)cc1 [Example 0.83] | > 12.7 µM
